Experimental data from ChEMBL document CHEMBL5647692, “The novel dual PI3K/mTOR inhibitor NVP-BGT226 displays cytotoxic activity in both normoxic and hypoxic hepatocarcinoma cells” (Oncotarget, 2015).
Active and inactive are the calls of the source. No cut-off for these calls is given here.

Experiments:
SNU-449 [1] = assay: Cytotoxicity against human SNU-449 cells assessed as reduction in cell viability at 0.5 to 5 uM incubated for 24 hrs by MTT assay; format: functional, cell-based; conditions: dose 0.5-5 µM
Mahlavu [2] = assay: Induction of cell cycle arrest in human Mahlavu cells assessed as increase in accumulation of cells in G0/G1 phase incubated at 0.01 to 0.1 uM for 24 hrs by propidium iodide staining based muse cell analysis; format: functional; conditions: dose 0.01-0.1 µM
Hep 3B2 [3] = assay: Induction of cell cycle arrest in human Hep3B cells assessed as increase in accumulation of cells in G0/G1 phase incubated at 0.01 to 0.1 uM for 24 hrs by propidium iodide staining based muse cell analysis; format: functional; conditions: dose 0.01-0.1 µM
Hep 3B2 [4] = assay: Induction of cell cycle arrest in human Hep3B cells assessed as decrease in accumulation of cells in S phase incubated at 0.01 to 0.1 uM for 24 hrs by propidium iodide staining based muse cell analysis; format: functional; conditions: dose 0.01-0.1 µM
Hep 3B2 [5] = assay: Induction of apoptosis in human Hep3B cells assessed as cleaved Caspase 7 level at 0.5 uM incubated for 24 hrs by Western blotting analysis; format: functional, cell-based
Mahlavu [6] = assay: Induction of apoptosis in human Mahlavu cells assessed as viable cells at 0.66 uM incubated for 24 hrs by Annexin-V/7-AAD staining based muse cell analyzer method (reference value: 90.52 %); format: functional; conditions: read-out: Activity
Mahlavu [7] = assay: Induction of apoptosis in human Mahlavu cells assessed as viable cells at IC50 incubated for 24 hrs in presence of Z-VAD-fmk by Annexin-V/7-AAD staining based muse cell analyzer method (reference value: 90.52 %); format: functional
SNU-449 [8] = assay: Induction of apoptosis in human SNU-449 cells assessed as early apoptotic cells at 1.5 uM incubated for 24 hrs by Annexin-V/7-AAD staining based muse cell analyzer method (reference value: 3.95 %); format: functional
SNU-449 [9] = assay: Induction of apoptosis in human SNU-449 cells assessed as necrotic cells at 1.5 uM incubated for 24 hrs by Annexin-V/7-AAD staining based muse cell analyzer method (reference value: 0.95 %); format: functional
SNU-449 [10] = assay: Induction of apoptosis in human SNU-449 cells assessed as viable cells at IC50 concentration incubated for 24 hrs in presence of Z-VAD-fmk by Annexin-V/7-AAD staining based muse cell analyzer method (reference value: 90.07 %); format: functional
SNU-449 [11] = assay: Induction of apoptosis in human SNU-449 cells assessed as early apoptotic cells at IC50 concentration incubated for 24 hrs in presence of Z-VAD-fmk by Annexin-V/7-AAD staining based muse cell analyzer method (reference value: 3.95 %); format: functional
SNU-449 [12] = assay: Induction of apoptosis in human SNU-449 cells assessed as late apoptotic cells at IC50 concentration incubated for 24 hrs in presence of Z-VAD-fmk by Annexin-V/7-AAD staining based muse cell analyzer method (reference value: 5.03 %); format: functional
SNU-449 [13] = assay: Induction of apoptosis in human SNU-449 cells assessed as necrotic cells at IC50 concentration incubated for 24 hrs in presence of Z-VAD-fmk by Annexin-V/7-AAD staining based muse cell analyzer method (reference value: 0.95 %); format: functional
SNU-475 [14] = assay: Induction of autophagy in human SNU-475 cells assessed as upregulation of LC3A/B II level by Western blot analysis; format: functional, cell-based; conditions: dose 0.1-0.5 µM
Mahlavu [15] = assay: Induction of autophagy in human Mahlavu cells assessed as increase in lipidation of LC3I to LC3II at 0.5 uM incubated for 24 hrs by Western blot analysis; format: functional, cell-based
Mahlavu [16] = assay: Induction of autophagy in human Mahlavu cells assessed as increase in lipidation of LC3A/B II level at 0.5 uM incubated for 24 hrs in presence of chloroquine by Western blot analysis; format: functional, cell-based
SNU-475 [17] = assay: Induction of autophagy in human SNU-475 cells assessed as increase in lipidation of LC3A/B II level at 0.5 uM incubated for 24 hrs in presence of chloroquine by Western blot analysis; format: functional, cell-based
SNU-475 [18] = assay: Induction of autophagy in human SNU-475 cells assessed as reduction in cytotoxicity at 0.5 uM incubated for 24 hrs by MTT assay; format: functional, cell-based
SNU-475 [19] = assay: Cytotoxicity against human SNU-475 cells assessed as reduction in cell viability at 0.5 uM incubated for 24 hrs in presence of chloroquine by MTT assay; format: functional, cell-based
Hep 3B2 [20] = assay: Cytotoxicity against human Hep3B cells assessed as reduction in cell viability at 0.5 uM incubated for 24 hrs in presence of 3-Methyladenine by MTT assay; format: functional, cell-based
[21] = Inhibition of PI3K/Akt/mTOR signaling pathway in human Mahlavu cells assessed as reduction in phosphorylation of GSK3 alpha/beta incubated for 1 hr under normoxia condition by Western blotting analysis; format: cell-based; conditions: dose 0.25-1 µM
[22] = Inhibition of PI3K/Akt/mTOR signaling pathway in human HepG2 cells assessed as reduction in phosphorylation of mTORC1 substrate S6 incubated for 1 hr under normoxia condition by Western blotting analysis; format: cell-based; conditions: dose 0.25-1 µM
[23] = Inhibition of PI3K/Akt/mTOR signaling pathway in human SNU-449 cells assessed as reduction in phosphorylation of Akt incubated for 1 hr under normoxia condition by Western blotting analysis; format: cell-based; conditions: dose 0.25-1 µM
[24] = Inhibition of PI3K/Akt/mTOR signaling pathway in human SNU-475 cells assessed as reduction in phosphorylation of Akt at 1 to 10 nM incubated for 1 hr under hypoxia condition by Western blotting analysis; format: cell-based; conditions: dose 1-10 nM
[25] = Inhibition of PI3K/Akt/mTOR signaling pathway in human Mahlavu cells assessed as reduction in phosphorylation of Akt at 1 to 10 nM incubated for 1 hr under normoxia condition by Western blotting analysis; format: cell-based; conditions: dose 1-10 nM
[26] = Inhibition of PI3K/Akt/mTOR signaling pathway in human Mahlavu cells assessed as reduction in S6 phosphorylation at 1 to 10 nM incubated for 1 hr under normoxia condition by Western blotting analysis; format: cell-based; conditions: dose 1-10 nM
SNU-449 [27] = assay: Cytotoxicity against human SNU-449 cells assessed as reduction in cell viability incubated for 24 hrs under normoxia condition by MTT assay; format: functional, cell-based
Hep 3B2 [28] = assay: Cytotoxicity against human Hep3B cells assessed as reduction in cell viability incubated for 24 hrs under normoxia condition by MTT assay; format: functional, cell-based
Hep 3B2 [29] = assay: Cytotoxicity against human Hep3B cells assessed as reduction in cell viability incubated for 24 hrs under hypoxia condition by MTT assay; format: functional, cell-based
SNU-475 [30] = assay: Induction of autophagy in human SNU-475 cells assessed as decreased expression of SQSTM1/p62 level incubated for 24 hrs under hypoxia condition by Western blot analysis; format: functional, cell-based; conditions: dose 0.1-0.5 µM
Mahlavu [31] = assay: Induction of autophagy in human Mahlavu cells assessed as increase in LC3I to LC3II conversion at 0.5 uM incubated for 24 hrs under hypoxia condition by Western blot analysis; format: functional, cell-based
SNU-475 [32] = assay: Induction of autophagy in human SNU-475 cells assessed as increase expression of LC3 A/B II at 0.5 uM incubated for 24 hrs in presence of chloroquine under hypoxia condition by Western blot analysis; format: functional, cell-based
SNU-475 [33] = assay: Cytotoxicity against human SNU-475 cells assessed as reduction in cell viability at 0.5 uM incubated for 24 hrs in presence of chloroquine under hypoxia condition by MTT assay; format: functional, cell-based
Hep 3B2 [34] = assay: Anti-tumor activity against human Hep3B cells assessed as reduction of VEGF level incubated for 24 hrs under hypoxia condition by Western blot analysis; format: functional, cell-based; conditions: dose 0.01-0.1 µM

With `COc1ccc(-c2ccc3ncc4c(c3c2)n(-c2ccc(N3CCNCC3)c(C(F)(F)F)c2)c(=O)n4C)cn1` [BGT-226 FREE BASE] the Activity (SNU-449 [1]) was “Active”, the Activity (Mahlavu [2]) was “Active” and the Activity (Hep 3B2 [3]) was “Active”. The Activity (Hep 3B2 [4]) was “Active”, the Activity (Hep 3B2 [5]) was “Active” and the viability at 0.66 µM (Mahlavu [6]) was 50.8%. For the same compound, the Activity (Mahlavu [7]) was 81.63%, the Activity (SNU-449 [8]) was 18.2% and the Activity (SNU-449 [9]) was 1.02%. It also gave an Activity (SNU-449 [10]) of 83.56%, an Activity (SNU-449 [11]) of 11.94% and an Activity (SNU-449 [12]) of 4.05%. For the same compound, the Activity (SNU-449 [13]) was 0.45%, the Activity (SNU-475 [14]) was “Dose-Dependent Effect” and the Activity (Mahlavu [15]) was “Active”. The Activity (Mahlavu [16]) was “Active”, the Activity (SNU-475 [17]) was “Active” and the Activity (SNU-475 [18]) was “Active”. For the same compound, the Activity (SNU-475 [19]) was “Active”, the Activity (Hep 3B2 [20]) was “Active” and the inhibition [21] was “Dose-Dependent Effect”. The inhibition [22] was “Dose-Dependent Effect”, the inhibition [23] was “Dose-Dependent Effect” and the inhibition [24] was “Active”. For the same compound, the inhibition [25] was “Active”, the inhibition [26] was “Active” and the Activity (SNU-449 [27]) was “Active”. For the same compound, the Activity (Hep 3B2 [28]) was “Active”, the Activity (Hep 3B2 [29]) was “Active” and the Activity (SNU-475 [30]) was “Dose-Dependent Effect”. For the same compound, the Activity (Mahlavu [31]) was “Dose-Dependent Effect”, the Activity (SNU-475 [32]) was “Active” and the Activity (SNU-475 [33]) was “Active”. For the same compound, the Activity (Hep 3B2 [34]) was “Dose-Dependent Effect”.
